Our source for the EC50 values is patent US20070015818A1, “Cyclic sulfone containing retroviral protease inhibitors” (G.D. Searle & Co. (now G.D. Searle, LLC), priority 1995, published 2007).

This test concerns HIV. In words: EC50 of Table 1 (antiviral activity, method not described). It is filed as cell-based. Conditions: Human immunodeficiency virus 1.
In the case of `CC(C)(C)NC(=O)[C@@H]1C[C@@H]2CCCC[C@@H]2CN1C[C@@H](O)[C@H](Cc1ccccc1)NC(=O)C1CCCS(=O)(=O)C1` (stereo partly drawn) [Example 7], a half-maximal effect (EC50) was put at 12 nM.
The figure for `CC(C)CCN(C[C@@H](O)[C@H](Cc1ccccc1)NC(=O)C1CCCS(=O)(=O)C1)C(=O)NC(C)(C)Cn1ccnc1` (stereo partly drawn) [Example 4a] is 295 nM; for `CC(C)CCN(C[C@@H](O)[C@H](Cc1ccccc1)NC(=O)C1CCCS(=O)(=O)C1)S(=O)(=O)c1ccccc1` (stereo partly drawn) [Example 8] it is 19 nM.
